The test system of assay [1] is LC3-I and LC3-II in PC-3 cells. Nature of the assay: Western blot of LC3-I and LC3-II in PC-3 cells. In kind it is cell-based, Human. The procedure: (§1) PC-3 cells were plated at 2 × 10^5 cells/dish in 6 cm dishes and treated with different compounds. At the end of the treatments the cells were lysed in RIPA buffer. Protein extracts (15–35 μg) were resuspended in presence of reducing Sample buffer (Bio-Rad Laboratories, Segrate, Milano, Italy), heated at 95 °C for 5 min and separated by SDS-PAGE WB. Proteins were transferred onto nitrocellulose or PVDF membranes. After blocking with nonfat dried milk, membranes were incubated with anti-ATG5 (1:1000) (#12994) Cell Signaling Technology Inc. (Boston, MA, USA), anti-LC3 (1:1000) (L8918) (Sigma-Aldrich), anti-SQSTM1/p62 (1:2000) (PA5-20839) (Thermo Fisher Scientific, Waltham, MA, USA), anti-cleaved-caspase-3 (1:500) (#9664) Cell Signaling Technology Inc. primary antibodies overnight at 4 °C. Horseradish peroxidase (HRP) conjugated secondary anti-rabbit or anti-mouse antibodies were used for 1 h at room temperature and the membranes were processed using chemiluminescence kit Cyanagen Ultra (Cyanagen, Bologna, Italy). In each WB experiment alpha-tubulin expression (T6199) (Sigma-Aldrich, St. Louis, MO, USA) was evaluated as a protein control. Relative optical density of the bands was assessed by ImageJ software (version 1.54g). Uncropped WB images are available in the Supporting Information.
Background: In western blotting, separated proteins are transferred to a membrane and probed.

The subject of the next assay is MCF-7 cells. Kind of assay: MTS cell viability, MCF-7. The format is cell-based. Particulars: 72 h, 0.0025 to 5 μM, n = 4. How it is done:
(§2) The study was conducted on several cancer cells. Human CRPC cell lines (PC-3 and DU145) were purchased from the American Type Culture Collection (ATCC, Manassas, VA, USA) and cultured at 37 °C and 5% CO2 in RPMI 1640 (EuroClone, Milano, Italy) supplemented, respectively, with 7.5% (PC3) and 5% (DU145) FBS (Gibco, ThermoFisher Scientific, Waltham, MA, USA), 1% L-glutamine, and antibiotics (100 IU/mL penicillin G). […]
(§3) For viability studies, MTS (Cell Titer 96 Aqueous One Solution Cell Proliferation Assay) (Promega, Nacka, Sweden) and 3-(4,5-dimethylthiazole-2-yl)-2,5-diphenyltetrazolium bromide (MTT) (Sigma-Aldrich, St. Louis, MO, USA) assays were conducted. […] The absorbance (λ = 550 nm) was measured by an EnSpire Multimode Plate reader (Perkin Elmer, Milano, Italy). The absorbance value of untreated cells was set at 100% (control), and the viability of treated cells was expressed as a percentage of the control. […] After 72 h, cell viability was assessed using an MTS assay according to the manufacturer’s protocol using a 96-well-plate spectrophotometer (Varioskan Flash Multimode Reader; ThermoFisher Scientific, Waltham, MA, USA) set at λ = 490 nm. The absorbance value of untreated cells was set at 100% (control), and the viability of treated cells was expressed as a percentage of the control. […]

The subject of another assay is A375 cells. Kind of assay: MTS cell viability, A375. In kind it is cell-based. Particulars: 72 h, 0.0025 to 5 μM, n = 4. How it is done: as §2, §3
The next assay concerns autophagy in PC-3 cells. Nature of the assay: Autophagosome formation and autophagic flux in PC-3 cells (LC3-I, LC3-II, p62). The note with it: as evidenced by LC3-I. In kind it is cell-based, Human. How it is done:
as §1

In the next assay the test system is p62 in PC-3 cells. Kind of assay: Western blot of p62 (SQSTM1) in PC-3 cells. The note with it: 72 h and 96 h. In kind it is cell-based, Human. How it is done:
as §1

The next assay deals with DU145 cells. Nature of the assay: MTT cell viability, DU145 (ATG5-deficient). The format is cell-based, Human. The note with it: 72 h, dose printed 5 mM, n = 6. The procedure:
as §2, §3

Assay [2] has as its target human recombinant His-tagged LC3B (Homo sapiens, UniProt Q9GZQ8). Nature of the assay: MST binding to human recombinant His-tagged LC3B. The note with it: Table S1.
Procedure: A constant concentration of red-labelled LC3B (10 nM) was incubated with sixteen 1:1 serial dilutions of peptides (concentration details are consultable in the Supplementary Materials, Table S1). PBS-T (phosphate-buffered saline + 0.05% Tween™ 20), from NanoTemper Technologies, with 2.5% dimethyl sulfoxide (DMSO) (Product No. D8418; Sigma-Aldrich, Saint Louis, MO, USA) was used as buffer. After 15 min of incubation at room temperature, samples were loaded into standard capillaries (Product No. MO-K022; NanoTemper Technologies) and analyzed at 25 °C with 20% excitation power and medium MST power (40%) using the “Binding Affinity” mode available in the MO.Control v1.6 software (NanoTemper Technologies GmbH, München, Germany). Prior to Kd determination, peptide auto-fluorescence was assessed. Data analysis was performed using MO.Affinity Analysis v2.3 software (NanoTemper Technologies GmbH, München, Germany) applying the Kd model for fitting the binding curve, while the figures were generated using GraphPad Prism v8.0.2 software (GraphPad, Boston, MA, USA).
Two independent experiments were performed to determine the Kd value.
RA = Response Amplitude; SNR = Signal -to-Noise Ratio.
The next assay has as its system PC-3 cells. Kind of assay: MTT cell viability, PC-3. The format is cell-based, Human. The procedure:
The study was conducted on several cancer cells. Human CRPC cell lines (PC-3 and DU145) were purchased from the American Type Culture Collection (ATCC, Manassas, VA, USA) and cultured at 37 °C and 5% CO2 in RPMI 1640 (EuroClone, Milano, Italy) supplemented, respectively, with 7.5% (PC3) and 5% (DU145) FBS (Gibco, ThermoFisher Scientific, Waltham, MA, USA), 1% L-glutamine, and antibiotics (100 IU/mL penicillin G). Luminal A MCF-7 breast cancer cells (ATCC, Manassas, VA, USA) were cultured in Dulbecco’s Modified Eagle Medium/Nutrient Mixture F-12 (DMEM-F12, Gibco Laboratories, Waltham, MA, USA) supplemented with 10% fetal bovine serum (FBS, Gibco Laboratories, Waltham, MA, USA), 1% penicillin/streptomycin (Gibco Laboratories), and 1% L-glutamine (Gibco Laboratories). A549 human lung cancer cell line (ATCC, Manassas, VA, USA) were cultured in Dulbecco’s modified eagle medium (DMEM, Lonza, Switzerland) supplemented with 10% FBS (Gibco Laboratories, Waltham, MA, USA), 1% of 100 u/mL penicillin/streptomycin (Gibco Laboratories), and 1% L-glutamine (Gibco Laboratories). […]
as §3

A further assay concerns A549 cells. Nature of the assay: MTS cell viability, A549. The format is cell-based, human. The note with it: 72 h, 0.0025 to 5 μM, n = 4. How it is done:
as §2, §3

For assay [3], the system named is cleaved caspase-3 in PC-3 cells. Nature of the assay: Western blot of cleaved caspase-3 in PC-3 cells. The note with it: AM10, Doc (25 nM) or both, 48 h. In kind it is cell-based, Human. The procedure:
as §1

The next assay has as its target LC3B. The note with it: eicosapeptide, ref [30]; cited from earlier work. The text has this: This small protein sequence consists of four conserved residues that can be succinctly represented as a sequence of “X0–X1–X2–X3”, where X0 represents an aromatic residue (Trp/Phe/Tyr), X1 and X2 can denote any amino acids (often acidic or hydrophobic residues), and X3 signifies a large hydrophobic residue such as Leu, Val, or Ile. Consequently, the LIR domain can be considered a promising starting poi ... || To measure the dissociation constants (Kd) of the peptides on human recombinant His-tagged LC3B protein, MST experiments were carried out on a Monolith NT.115^Pico instrument (see the Materials and Methods section for details). […] The electrostatic interactions between the new peptides and LC3B’s positively charged surface—defined by the residues K49, K51, R69, and R70—correlated with low predicted ΔG* values, explaining their improved ...

Regarding `CC[C@H](C)[C@H](NC(=O)[C@H](CC(=O)O)NC(=O)[C@H](Cc1ccc(I)cc1)NC(=O)[C@@H](NC(=O)[C@H](C)NC(=O)[C@@H](N)CC(=O)O)C(C)C)C(=O)N[C@@H](CCSC)C(=O)N[C@H](C(=O)N[C@H]1CSSC[C@@H](C(=O)O)NC(=O)[C@H](CCC(=O)O)NC(=O)[C@H](CCC(=O)O)NC1=O)[C@@H](C)O` [AM10], the “LC3-I and LC3-II expression, 48 h” value in [1] (5 µM, 48 h) was “significantly reduced the level of LC3-I and LC3-II”. In addition, the “LC3-I and LC3-II expression, 72 h” value in assay [1] (72 h) was “retains the ability to inhibit both LC3-I and LC3-II”. Further, the “LC3-I / LC3-II expression, Doc/AM10 experiment” value in [1] (AM10, Doc (25 nM) or both, 48 h) was “reduces the expression of both LC3-I and LC3-II”. Besides, the MCF-7 cell viability entry in the assay with MCF-7 cells is given as “concentration-dependent reduction in cell viability”. In the assay on A375 cells, the A375 cell viability entry was “concentration-dependent reduction in cell viability”. Moreover, in the assay with autophagy in PC-3 cells, the “autophagosome formation and autophagic flux (Conclusions)” value was “inhibited autophagosome formation and autophagic flux”. For the same compound, the p62 expression entry with p62 in PC-3 cells is on record as “the expression of p62 increases significantly”. Moreover, the DU145 cell viability result in the assay with DU145 cells is recorded as “no effect on cell viability”. Besides, the “Response Amplitude (RA)” value in assay [2] was found to be 2.8. Also, the PC-3 cell viability result in the assay on PC-3 cells (MTT, 72 h, 0.0025-5 μM (method), n = 6) is listed as “all peptides reduce cell viability in a significant dose-dependent manner starting from the 0.025 mM dose up to the 5 mM dose”. Further, the “PC-3 cell viability (Conclusions)” value in the assay with PC-3 cells (summary statement) is given as “diminished cell viability”. The A549 cell viability result in the assay on A549 cells was “concentration-dependent reduction in cell viability”. For the same compound, the “cleaved caspase-3 / apoptosis” value in assay [3] was “does not induce caspase-3 activation”.

One may read the Kd as the constant that tells how readily two partners part at equilibrium. Turning to RDDAV2DIITDEEαCQIQEW [Comb1], the Kd on LC3B is 120 nM.
